Results from paper PMC10008561 (Nature Communications, 2023).

Experiments:
Assay in all cases: cell-based
human KOR (Gi3) [1] = molecular target: T1, human KOR (Gi3) (Homo sapiens, UniProt P41145, F283A); conditions: HEK-293T
T1 construct: expressed in transfected cells; host or cells: HEK293T

human KOR (Gi3) [2] = molecular target: T2, human KOR (Gi3) (Homo sapiens, UniProt P41145, D155A); conditions: HEK-293T
T2 construct: expressed in transfected cells; host or cells: HEK293T

human KOR (Gi3) [3] = molecular target: T3, human KOR (Gi3) (Homo sapiens, UniProt P41145, N141A); conditions: HEK-293T
T3 construct: expressed in transfected cells; host or cells: HEK293T

human KOR (Gi3) [4] = molecular target: T4, human KOR (Gi3) (Homo sapiens, UniProt P41145)
T4 construct: expressed in transfected cells; host or cells: HEK293T

human KOR (Gi3) [5] = molecular target: T5, human KOR (Gi3) (Homo sapiens, UniProt P41145, L253A); conditions: HEK-293T
T5 construct: expressed in transfected cells; host or cells: HEK293T

human KOR (Gi3) [6] = molecular target: T6, human KOR (Gi3) (Homo sapiens, UniProt P41145, K227A); conditions: HEK-293T
T6 construct: expressed in transfected cells; host or cells: HEK293T

human KOR (Gi3) [7] = molecular target: T7, human KOR (Gi3) (Homo sapiens, UniProt P41145, Q115N); conditions: HEK-293T
T7 construct: expressed in transfected cells; host or cells: HEK293T

human KOR (Gi3) [8] = molecular target: T8, human KOR (Gi3) (Homo sapiens, UniProt P41145, Y139L); conditions: HEK-293T
T8 construct: expressed in transfected cells; host or cells: HEK293T

human KOR (Gi3) [9] = molecular target: T9, human KOR (Gi3) (Homo sapiens, UniProt P41145, E297A); conditions: HEK-293T
T9 construct: expressed in transfected cells; host or cells: HEK293T

human KOR (Gi3) [10] = molecular target: T10, human KOR (Gi3) (Homo sapiens, UniProt P41145, G319L); conditions: HEK-293T
T10 construct: expressed in transfected cells; host or cells: HEK293T

human KOR (Gi3) [11] = molecular target: T11, human KOR (Gi3) (Homo sapiens, UniProt P41145, R257A); conditions: HEK-293T
T11 construct: expressed in transfected cells; host or cells: HEK293T

human KOR (Gi3) [12] = molecular target: T12, human KOR (Gi3) (Homo sapiens, UniProt P41145, N326A); conditions: HEK-293T
T12 construct: expressed in transfected cells; host or cells: HEK293T

human KOR (Gi3) [13] = molecular target: T13, human KOR (Gi3) (Homo sapiens, UniProt P41145, R274A); conditions: HEK-293T
T13 construct: expressed in transfected cells; host or cells: HEK293T

human KOR (Gi3) [14] = molecular target: T14, human KOR (Gi3) (Homo sapiens, UniProt P41145, D266A); conditions: HEK-293T
T14 construct: expressed in transfected cells; host or cells: HEK293T

human KOR (Gi3) [15] = molecular target: T15, human KOR (Gi3) (Homo sapiens, UniProt P41145, D105A); conditions: HEK-293T
T15 construct: expressed in transfected cells; host or cells: HEK293T
T15 sequence (P41145 whole entry D105A): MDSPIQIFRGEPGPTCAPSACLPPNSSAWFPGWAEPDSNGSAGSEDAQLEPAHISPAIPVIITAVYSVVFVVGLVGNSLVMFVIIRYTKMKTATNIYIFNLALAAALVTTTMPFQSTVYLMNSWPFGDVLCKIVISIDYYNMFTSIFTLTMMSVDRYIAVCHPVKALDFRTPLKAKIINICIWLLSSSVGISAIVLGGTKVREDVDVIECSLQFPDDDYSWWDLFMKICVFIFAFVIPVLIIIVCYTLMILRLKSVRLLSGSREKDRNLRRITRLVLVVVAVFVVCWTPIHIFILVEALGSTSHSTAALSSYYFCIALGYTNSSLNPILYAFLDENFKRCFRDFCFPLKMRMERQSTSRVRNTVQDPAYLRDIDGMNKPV

T4 sequence (P41145 whole entry): as the sequence (P41145 whole entry D105A) above, with A105D counted along it
T2 sequence (P41145 whole entry D155A): as the sequence (P41145 whole entry D105A) above, with A105D, D155A counted along it
T7 sequence (P41145 whole entry Q115N): as the sequence (P41145 whole entry D105A) above, with A105D, Q115N counted along it
T6 sequence (P41145 whole entry K227A): as the sequence (P41145 whole entry D105A) above, with A105D, K227A counted along it
T3 sequence (P41145 whole entry N141A): as the sequence (P41145 whole entry D105A) above, with A105D, N141A counted along it
T14 sequence (P41145 whole entry D266A): as the sequence (P41145 whole entry D105A) above, with A105D, D266A counted along it
T11 sequence (P41145 whole entry R257A): as the sequence (P41145 whole entry D105A) above, with A105D, R257A counted along it
T12 sequence (P41145 whole entry N326A): as the sequence (P41145 whole entry D105A) above, with A105D, N326A counted along it
T8 sequence (P41145 whole entry Y139L): as the sequence (P41145 whole entry D105A) above, with A105D, Y139L counted along it
T5 sequence (P41145 whole entry L253A): as the sequence (P41145 whole entry D105A) above, with A105D, L253A counted along it
T1 sequence (P41145 whole entry F283A): as the sequence (P41145 whole entry D105A) above, with A105D, F283A counted along it
T13 sequence (P41145 whole entry R274A): as the sequence (P41145 whole entry D105A) above, with A105D, R274A counted along it
T9 sequence (P41145 whole entry E297A): as the sequence (P41145 whole entry D105A) above, with A105D, E297A counted along it
T10 sequence (P41145 whole entry G319L): as the sequence (P41145 whole entry D105A) above, with A105D, G319L counted along it

SMILES: CN(C(=O)/C=C/c1ccoc1)[C@@H]1CC[C@@]2(O)[C@H]3Cc4ccc(O)c5c4[C@@]2(CCN3CC2CC2)[C@H]1O5 [Nalfurafine, nalfurafine]
- Emax (human KOR (Gi3) [1]): 74.8%
- Emax (human KOR (Gi3) [2]): 77.8%
- Emax (human KOR (Gi3) [3]): 107%
- Emax% (human KOR (Gi3) [4]): 99.93%
- Emax (human KOR (Gi3) [4]; HEK-293T): 100%
- Emax (human KOR (Gi3) [5]): 104%
- Emax (human KOR (Gi3) [6]): 106%
- Emax (human KOR (Gi3) [7]): 78.7%
- Emax (human KOR (Gi3) [8]): 96%
- Emax (human KOR (Gi3) [9]): 100%
- Emax (human KOR (Gi3) [10]): 106%
- Emax (human KOR (Gi3) [11]): 100%
- Emax (human KOR (Gi3) [12]): 106%
- Emax (human KOR (Gi3) [13]): 98.8%
- Emax (human KOR (Gi3) [14]): 105%
- Emax (human KOR (Gi3) [15]): 81.7%
